Source: patent US6124308A, “Optically active phenyl pyrimidine derivatives as analgesic agent” (priority 1995, dated 2000)
Structures can show the parent of a compound that is named as a salt. Where two headings read alike, the source gives them in different places.

What was measured:
[1] = Solubility of salts in water and pH (drug addition method); format: physicochemical; conditions: water, room temperature
Method: The solubility was determined by means of the drug addition method. At room temperature the drug was added to 0.25 ml deionised water. The sample was diluted to 2 ml for pH determination. A single determination was carried out.

[2] = Melting profile / stability of salts (Mettler hotstage and DSC); format: physicochemical; conditions: for Hotstage/DSC results indicates (racemisation on heating) / temperature of racemisation indicated by hotstage/DSC: 10° C./min
Method: Events on heating were monitored visually using a Mettler hotstage and a microscope. A DSC scan was then used to confirm the observed events and identify the type of event. The DSC experiments were performed using the Perkin Elmer DSC-7 system with a TAC7/DX recorder. In order to capture as many events as possible a scan irate of 10° C./min and 1-2 mg sample size was used. DSC sweeps between 40° C. and 400° C. or from and to 50° C. outside any event observed on the hot stage were carried out on one or two samples. The samples and reference (air) were placed in 50 μl aluminium pans with holes.

[3] = tested on: maximal electroshock seizure; experiment: Maximal electroshock test, rats, i.v., stronger current (200 mA); format: in vivo; conditions: Rattus norvegicus, iv, 1 h
Text: A stronger current (200 mA) was used compared with that (20 mA) used in the other procedures.

[4] = tested on: hind-limb extension (maximal electroshock seizure); experiment: Maximal electroshock test, rats, i.p., duration of action; format: in vivo, rat; conditions: for ED50 (95% limits): i.p., rats
[5] = tested on: striatal dopamine in MPTP injected C57B1/6 mice; experiment: MPTP induced neurotoxic model, striatal dopamine levels; format: in vivo, mouse
Method: Six-week old male C57B1/6 mice (Japan SLC Co., Hamamatu) were housed ten per case in a temperature-controlled room under a 12-hours light/12-hours dark cycle with free access to food and water.
Mice received i.p. injections of the R(-) enantiomer and the S(+) enantiomer (30 mg/kg) in olive oil starting 12 hours before MPTP injection and every 12 hours for the next 5-injections. Control mice received olive oil only.
Mice receive s.c. injection of MPTP-HCl (40 mg of free base per kg; Research Biochemicals) in saline. Control mice received saline only.
HPLC with electrochemical detection was used to measure striatal levels of dopamine (J.C. Garcia': Journal of Chromatography B. 656 (1994) 77-80).
Seven days after the MPTP injection, mice ([…]) were killed and striata were dissected out, immediately frozen, and stored at -80° C. until analysis. On the day of the assay, tissue samples were sonicated in 10 vol(wt/vol) of 0.1M perchloric acid /1.9 mM sodium hydrogen sulfite containing 1.6μg/ml 3,4-dihydroxybenzylamine hydrobromide(Sigma) as an internal standard. After centrifugation (2,800× g for 10 min at room temperature) and filtration (0.5 μm; Millipore membrane filter), 10 μl of supernatant was injected onto an Inertsil ODS3 column (4.6×250 mm; GL Science, Tokyo). The mobile phase consisted of 88% 115 mM NaH2 PO4 /0.178 mM Na2 EDTA /0.92 mM 1-octanesulfonic acid (pH=2.6) solution and 12% ethanol. F low rate was 1.0 ml/min. Peaks were detected by a Shimazu electrochemical detector LECD-6A(700 mV).

[6] = Half-life in male rats; format: in vivo, rat
[7] = tested on: PGE2-induced acute hyperalgesia; experiment: Effects on the development of PGE2-induced acute hyperalgesia (paw pressure); format: in vivo, rat; conditions: p.o., 1 h before PGE2 (100 ng), n=5
Method: Effects on the development of PGE2 -induced acute hyperalgesia
Reaction times to paw pressure were measured 3 h after PGE2 injection. Ataxia was scored at the same time by observation of the rats placed in an arena.

[8] = tested on: whole-cell sodium currents in cultured rat hippocampal neurones; experiment: Whole-cell sodium currents in cultured embryonic rat hippocampal neurones, patch-clamp; format: cell-based
Text: (b) Cultured embryonic rat hippocampal neurones
Sodium currents were elicited by the application of 20 msec dipolarisng pulses, thereby lowering membrane potential to -10 mV from a holding potential of -60 mV.

[9] = tested on: veratrine-evoked glutamate release from rat brain slices; experiment: Inhibition of veratrine-evoked glutamate release; format: cell-based; conditions: at 10 μM
[10] = target: T1, rat liver DHFR (Rattus norvegicus, UniProt Q920D2); experiment: Activity against dihydrofolate reductase (DHFR), spectrophotometric assay; format: biochemical; conditions: at 100 μM
T1 construct: rat liver DHFR; from tissue; host or cells: rat liver
T1 sequence (Q920D2 1-187): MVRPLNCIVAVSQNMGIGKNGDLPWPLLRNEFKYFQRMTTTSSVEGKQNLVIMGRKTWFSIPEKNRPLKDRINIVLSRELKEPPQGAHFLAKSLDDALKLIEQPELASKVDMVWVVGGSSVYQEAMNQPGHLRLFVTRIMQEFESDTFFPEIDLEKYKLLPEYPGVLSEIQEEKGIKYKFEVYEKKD

Structure (SMILES) | pH of the solution [1] | Hotstage/DSC results indicates (racemisation on heating) [2] | temperature of racemisation indicated by hotstage/DSC [2] | stability profile suggested by the tests [2] | also measured
Nc1nc(N)c(-c2cccc(Cl)c2Cl)c(CF)n1 [Acetate] | 5.54 | Racemisation | ~200 °C |  | solubility ([1]; read-out: solubility of four salts): < 1 mg/mL
Nc1nc(N)c(-c2cccc(Cl)c2Cl)c(CF)n1 [Succinate] | 4.09 | Racemisation | 81 °C |  | 
Nc1nc(N)c(-c2cccc(Cl)c2Cl)c(CF)n1 [HCl, R(-)-2,4-diamino-5-(2,3-dichlorophenyl)-6-fluoromethyl Pyrimidine Monohydrochloride] |  |  |  |  | pH of the solution ([1]; Monohydrochloride): 3.61; solubility ([1]; solubility of the equivalent base over or around 25 mg/ml): ~25 mg/mL; Hotstage/DSC results indicates (racemisation on heating) ([2]; Monohydrochloride): Racemisation; temperature of racemisation indicated by hotstage/DSC ([2]; Monohydrochloride): 243 °C
Nc1nc(N)c(-c2cccc(Cl)c2Cl)c(CF)n1 [(L)-Lactate] | 3.43 | Racemisation | 143 °C |  | solubility of four salts [1]: less than 1 mg/ml
Nc1nc(N)c(-c2cccc(Cl)c2Cl)c(CF)n1 [Benzoate] | 4.17 | unstable |  |  | solubility of four salts [1]: less than 1 mg/ml
Nc1nc(N)c(-c2cccc(Cl)c2Cl)c(CF)n1 [Malonate] | 3.2 |  |  | could provide good stability | 
Nc1nc(N)c(-c2cccc(Cl)c2Cl)c(CF)n1 [Benzenesulphonate] | 2.43 |  |  | could provide good stability | 
Nc1nc(N)c(-c2cccc(Cl)c2Cl)c(CF)n1 [Methanesulphonate, R(-)-2,4-diamino-5-(2,3-dichlorophenyl)-6-fluoromethyl Pyrimidine Methanesulphonate] | 3.33 | Racemisation | 240 °C | could provide good stability | solubility of the equivalent base over or around 25 mg/ml [1]: around 25 mg/ml
Nc1nc(N)c(-c2cccc(Cl)c2Cl)c(CF)n1 [Naphthalenedisulphonate] |  |  |  | could provide good stability | solubility of four salts [1]: less than 1 mg/ml
Nc1nc(N)c(-c2cccc(Cl)c2Cl)c(CF)n1 [Tartrate] | 3.48 |  |  | could provide good stability | 
Nc1nc(N)c(-c2cccc(Cl)c2Cl)c(CF)n1 [Phosphate] | 2.34 |  |  | could provide good stability | solubility of the equivalent base over or around 25 mg/ml [1]: around 25 mg/ml
Nc1nc(N)c(-c2cccc(Cl)c2Cl)c(CF)n1 [Isethionate, R(-)-2,4-diamino-5-(2,3-dichlorophenyl)-6-fluoromethyl Pyrimidine Isethionate] | 1.67 |  |  |  | ED50 [3]: 1.5 mg/kg; ED50 ([4]; Rattus norvegicus, ip, 2 h, read-out: ED50 at 2 hrs (isethionate salt versus base), i.p., 2 hrs, calculated as the base, p<0.05): 1.8 mg/kg; solubility of the equivalent base over or around 25 mg/ml [1]: around 25 mg/ml
Nc1nc(N)c(-c2cccc(Cl)c2Cl)c(CF)n1 [Toluenesulphonate] |  |  |  | could provide good stability | 
Nc1nc(N)c(-c2cccc(Cl)c2Cl)c(CF)n1 [Sulphate] | 1.92 | Racemisation | 194 °C | could provide good stability | solubility of the equivalent base over or around 25 mg/ml [1]: around 25 mg/ml
Nc1nc(N)c(-c2cccc(Cl)c2Cl)c(CF)n1 [Citrate] | 3.99 |  |  | could provide good stability | 
Nc1nc(N)c(-c2cccc(Cl)c2Cl)c(CF)n1 [S(+)enantiomer, S(+)-2,4-diamino-5-(2,3-dichlorophenyl)-6-fluoromethyl pyrimidine, reference compound] |  |  |  |  | ED50 (95% limits) ([4]; 0.5 hours, 30 min): 17.6 (11.6-26.4) mg/kg; ED50 (95% limits) ([4]; 1 hour, 60 min): 19.0 (12.7-28.5) mg/kg; ED50 (95% limits) ([4]; 2 hours, 120 min): 30.7 (20.9-45.3) mg/kg; ED50 (95% limits) ([4]; 4 hours, 240 min): 87.3 (47.7-168) mg/kg; % protection ([5]; 30 mg/kg i.p. 6 times, MPTP 40 mg/kg s.c.): 20.3%; Dopamine content in the striatum ([5]; 30 mg/kg i.p. 6 times, MPTP 40 mg/kg s.c., day 7): 7.99 ± 1.55 μg/g wet tissue; % mortality ([5]; 30 mg/kg i.p., day -1 to 7): 0%; half-life (t1/2) [6]: 3.1 h; Analgesia ED50 (95% limits) [7]: 50.1 (39.2-70.5) mg/kg; IC50 ([8]; 20 msec pulses to -10 mV from holding potential -60 mV, read-out: IC50 (reduction of peak sodium current)): 20 µM; reduction of peak sodium current ([8]; holding potential -60 mV): concentration-dependent reduction of peak sodium current; inhibition of veratrine-evoked glutamate release [9]: 0%; inhibition of rat liver DHFR [10]: 33%
Nc1nc(N)c(-c2cccc(Cl)c2Cl)c(CF)n1 [Fumarate] | 3.04 | Racemisation | 127 °C |  | 
